Experiments:
[1] = tested on: U87MG xenografts (tumor glucose metabolism); test: FDG microPET/CT tumor uptake in U87MG xenografts
U87MG xenografts [2] = test: U87MG xenograft tumor growth; type: in vivo, SCID mice
[3] = tested on: U87MG xenografts (αVβ3 integrin activity); test: microPET/CT tumor uptake of [^64Cu]DOTA–c; type: in vivo, SCID mice; settings: 72 h; for reduction of [^64Cu]DOTA–c(RGDfK) tumor uptake: vs vehicle controls, PET 15 h post injection
[4] = tested on: αVβ3 focal adhesions in U87MG cells; test: Immunofluorescence of dimerized αVβ3; type: cell-based, human; settings: 100 nM, 3 h, U87MG on fibronectin
[5] = tested on: Src family kinases / Focal Adhesion Kinase phosphorylation in U87MG cells; test: Western blot of phospho-Src, phospho-FAK and β3 in U87MG cell lysates; type: cell-based, human; settings: 100 nM
[6] = tested on: αVβ3 integrin on U87MG cells; test: Flow cytometry of surface αVβ3 integrin expression; type: cell-based, human; settings: 100 nM, 6 or 24 h, FACS, LM609 antibody, samples in duplicate
U87MG xenografts [7] = test: Histology and immunohistochemistry of frozen tumor sections; type: in vivo, SCID mice; settings: 95 mg/kg, 72 h

| Structure (SMILES) | tumor FDG uptake in vehicle controls ([1]; U87MG xenograft, 7–10 MBq FDG, 1 h uptake, mean ± SD) | difference in tumor size between control and treated animals (U87MG xenografts [2]; after 10 consecutive days of treatment) | difference in tumor size at the time of PET imaging (U87MG xenografts [2]; day 3, p=0.1272) | reduction of [^64Cu]DOTA–c(RGDfK) tumor uptake ([3]; 72 mg/kg daily gavage) | reduction of [^64Cu]DOTA–c(RGDfK) tumor uptake ([3]; 95 mg/kg daily gavage) | tracer distribution and organ uptake, treated vs untreated animals ([3]; 95 mg/kg, dynamic PET, normal organs, except U87 xenografts) | αVβ3 clustering in focal adhesion complexes [4] | total β3 levels ([5]; 6 or 24 h) | FAK phosphorylation at tyrosine 397 ([5]; 6 h) | FAK phosphorylation at tyrosine 861 ([5]; 6 h) | SFK phosphorylation at tyrosine 416 ([5]; 6 h) | total dimerized cell surface αVβ3 protein level [6] | change in tumor FDG uptake ([1]; 95 mg/kg, 72 h, p=0.1704) | tumor viability and vascularization (H&E, CD31) (U87MG xenografts [7]) | phospho-FAK (Y861) staining in tumors (U87MG xenografts [7]; immunohistochemistry, relative to control) | αVβ3 staining in tumors (U87MG xenografts [7]; treated vs control, LM609 antibody) |
| --- | --- | --- | --- | --- | --- | --- | --- | --- | --- | --- | --- | --- | --- | --- | --- | --- |
| OC[C@H]1OC(O)[C@H]([18F])[C@@H](O)[C@@H]1O (stereo partly shown) [FDG, [^18F]fluorodeoxyglucose] | 10.39±1.04 % ID/g |  |  |  |  |  |  |  |  |  |  |  |  |  |  |  |
| Cc1nc(Nc2ncc(C(=O)Nc3c(C)cccc3Cl)s2)cc(N2CCN(CCO)CC2)n1 [dasatinib] |  | six-fold | no appreciable difference | 39% | 59% | virtually identical | no longer clustered in focal adhesion complexes | nor did total β3 levels decrease | decrease | target inhibition | target inhibition | did not change relative to control | no significant change | remained viable and vascularized | reduced | no difference |

Reference: PMC2749524 (Cancer research, 2009)
